# Source: patent publication US4952585A, “Castanospermine esters in the inhibition of tumor metastasis” (Merrell Dow Pharmaceuticals Inc., priority 1988, dated 1990)
# Experiments:
# B16 F10 melanoma cells = assay: inhibition of pulmonary metastases in C57 mice after pretreatment of B16 F10 melanoma cells with test compound in culture; assay type: in vivo, C57 male mice; conditions: Mus musculus, B16-F10, 360 h, pulmonary foci counted fifteen days after i.v. inoculation, read-out: per cent inhibition of metastases; for inhibition in vivo at 1 µg/mL: cells pretreated 48 hours with 1 μg/ml; for inhibition in vivo at 10 µg/mL: cells pretreated 48 hours with 10 μg/ml
# Protocol: The lungs provide a convenient organ for the study of metastasis in the animal body.
# A single suspension of B16 F10 melanoma cells was prepared from a 14 day old maintenance tumor excised from a C57 male mouse. The tumor was minced and trypsinized followed by dissociation of the cells in minimal essential medium (MEM) with fetal calf serum (FCS) by repeated pipetting. The preparation was passed through a sterile gauze pad, centrifuged, and the cell pellet washed in minimal essential medium without fetal calf serum. A trypan blue wet mount was made to determine the percent of viable cells.
# The cells were then plated in 100 mm petri dishes at 0.5×10^6 viable cells/10 ml minimal essential medium with fetal calf serum and incubated at 37° C. for 24 to 48 hours. After incubation, the medium was aspirated and 10 ml of the test compounds at the concentrations of 1 μg or 10 μg/ml MEM with FCS was added. After 24 hours incubation, the medium was aspirated and 10 ml of fresh test compound-medium preparation was added.
# Test compounds were dissolved in water or dimethyl sulfoxide and then diluted to the testing concentrations with medium. Control plates receive only medium and/or medium containing dimethyl sulfoxide.
# After a total of 48 hours incubation, the testing medium was aspirated, the cells trypsinized and suspended in MEM with FCS. The cells were washed in MEM without FCS and resuspended at the concentration of 10×10^5 cells/ml of MEM without FCS.
# C57 male mice weighing 20-25 grams (Charles River) were inoculated intravenously via the tail vein with 2×10^5 cells per 0.2 ml MEM without FCS/mouse. Fifteen days after inoculation, the animals were sacrificed by carbon dioxide inhalation and the lungs were removed and placed in formalin solution. The number of pulmonary foci per animal lung was counted (after separating the lobes) under a lighted dissecting lens.
# Data can be expressed as the mean number of foci±S.E. per control and treatment groups. Treatment group data is also expressed as a percent of control and percent of inhibition (100% minus % of control). When the procedure described above was carried out on the castanospermine esters listed below, the per cent inhibition of metastases observed [at the dose, in micrograms per milliliter (μg/ml), given in parentheses] was as follows: […]
# [1] = system: B16 melanoma F10 line cells; assay: inhibition of metastatic foci in the lungs of C57/BL mice injected i.v. with B16 melanoma F10 line cells, test compound given i.p.; assay type: in vivo; conditions: 100 mg/kg, i.p. daily from day 1-15; metastatic foci in the lungs vs. controls
# Protocol: In another experiment, 1×10^5 viable B16 melanoma F10 line cells were injected i.v. through the tail vein of C57/BL mice. Test compound was then administered at 100 mg/kg, i.p. daily from day 1-15. At the end of 15 days, the animals were sacrificed and the number of metastatic foci in the lungs were quantitated and compared to controls run simultaneously.
# experimental metastasis = conditions: mice; Cancer Research, 46, 5215 (1986); cited from earlier work
SMILES,inhibition in vivo at 1 µg/mL (B16 F10 melanoma cells) [%],further results
"O=C(O[C@H]1CN2CC[C@H](O)[C@@H]2[C@@H](O)[C@@H]1O)c1ccco1 [[1S-(1α,6β,7α,8β,8aβ)]-Octahydro-1,6,7,8-indolizinetetrol 6-(2-furancarboxylate)]",51,% INHIBITION of metastasis [1]: 40%
"Cc1ccccc1C(=O)O[C@H]1CN2CC[C@H](O)[C@@H]2[C@@H](O)[C@@H]1O [[1S-(1α,6β,7α,8β,8aβ)]-Octahydro-1,6,7,8-indolizinetetrol 6-(2-methylbenzoate)]",,inhibition in vivo at 10 µg/mL (B16 F10 melanoma cells): 71%
"Cc1cccc(C(=O)O[C@H]2CN3CC[C@H](O)[C@@H]3[C@@H](O)[C@@H]2O)c1 [[1S-(1α,6β,7α,8β,8aβ)]-Octahydro-1,6,7,8-indolizinetetrol 6-(3-methylbenzoate)]",78,
"COc1ccc(C(=O)O[C@H]2CN3CC[C@H](O)[C@@H]3[C@@H](O)[C@@H]2O)cc1 [[1S-(1α,6β,7α,8β,8aβ)]-octahydro-1,6,7,8-indolizinetetrol 6-(4-methoxybenzoate)]",19,
"Cc1ccc(C(=O)O[C@H]2CN3CC[C@H](O)[C@@H]3[C@@H](O)[C@@H]2O)cc1 [[1S-(1α,6β,7α,8β,8aβ)]-octahydro-1,6,7,8-indolizinetetrol 6-(4-methylbenzoate)]",,inhibition in vivo at 10 µg/mL (B16 F10 melanoma cells): 75%; % INHIBITION of metastasis [1]: 71%
"CC(=O)O[C@H]1CN2CC[C@H](O)[C@@H]2[C@@H](O)[C@@H]1O [[1S-(1α,6β,7α,8β,8aβ)]-octahydro-1,6,7,8-indolizinetetrol 6-acetate]",> 50,
"O=C(O[C@H]1CN2CC[C@H](O)[C@@H]2[C@@H](O)[C@@H]1O)c1ccccc1 [[1S-(1α,6β,7α,8β,8aβ)]-octahydro-1,6,7,8-indolizinetetrol 6-benzoate]",35,% INHIBITION of metastasis [1]: 66%
"CCCC(=O)O[C@H]1CN2CC[C@H](O)[C@@H]2[C@@H](O)[C@@H]1O [[1S-(1α,6β,7α,8β,8aβ)]-octahydro-1,6,7,8-indolizinetetrol 6-butanoate]",,inhibition in vivo at 10 µg/mL (B16 F10 melanoma cells): 13%
"Cc1ccc(C(=O)O[C@H]2[C@H](O)[C@H]3[C@@H](O)CCN3C[C@@H]2O)cc1 [[1S-(1α,6β,7α,8β,8aβ)]-octahydro-1,6,7,8-indolizinetetrol 7-(4-methylbenzoate)]",65,
"O=C(O[C@H]1[C@H](O)[C@H]2[C@@H](O)CCN2C[C@@H]1O)c1ccccc1 [[1S-(1α,6β,7α,8β,8aβ)]-octahydro-1,6,7,8-indolizinetetrol 7-benzoate]",23,
"CCC(=O)O[C@H]1[C@H](O)[C@H]2[C@@H](O)CCN2C[C@@H]1O [[1S-(1α,6β,7α,8β,8aβ)]-octahydro-1,6,7,8-indolizinetetrol 7-propionate]",36,
"O[C@H]1[C@H](O)[C@@H](O)CN2CC[C@H](O)[C@H]12 [castanospermine, (1S,6S,7R,8R,8aR)-1,6,7,8-tetrahydroxyindolizidine]",,inhibition of experimental metastasis (experimental metastasis): inhibition of experimental metastasis
